# Measured values from ChEMBL document CHEMBL1140394, “Inhibition of Src kinase activity by 7-[(2,4-dichloro-5-methoxyphenyl)amino]-2-heteroaryl-thieno[3,2-b]pyridine-6-carbonitriles” (Bioorg Med Chem Lett, 2005).
# Experiments:
# [1] = biological target: Inhibitor of NF-kappa-B kinase (IKK) (Homo sapiens, UniProt O14920+O15111+Q9Y6K9); experiment: Inhibitory activity against IKK; type: functional
# [2] = biological target: T1, Proto-oncogene tyrosine-protein kinase Src (Homo sapiens, UniProt P12931); experiment: Inhibitory activity against non-receptor tyrosine kinase Src in cell assay; type: functional
# [3] = biological target: Serine/threonine-protein kinase RAF and Dual specificity mitogen-activated protein kinase kinase 1 (Raf/MEK) (Homo sapiens, UniProt P04049+Q02750); experiment: Inhibitory activity against Raf/MEK; type: functional
# [4] = biological target: T1, Proto-oncogene tyrosine-protein kinase Src; experiment: Inhibitory activity against non-receptor tyrosine kinase Src in enzyme assay
# [5] = biological target: Cyclin-dependent kinase 4 (Homo sapiens, UniProt P11802); experiment: Inhibitory activity against CDK4; type: functional
# [6] = biological target: Serine/threonine-protein kinase AKT (Homo sapiens, UniProt P31751+Q9Y243+P31749); experiment: Inhibitory activity against AKT; type: functional
# [7] = biological target: T2, 3-phosphoinositide-dependent protein kinase 1 (Homo sapiens, UniProt O15530); experiment: Inhibitory activity against PDK1; type: functional
# T2 sequence (O15530 whole entry): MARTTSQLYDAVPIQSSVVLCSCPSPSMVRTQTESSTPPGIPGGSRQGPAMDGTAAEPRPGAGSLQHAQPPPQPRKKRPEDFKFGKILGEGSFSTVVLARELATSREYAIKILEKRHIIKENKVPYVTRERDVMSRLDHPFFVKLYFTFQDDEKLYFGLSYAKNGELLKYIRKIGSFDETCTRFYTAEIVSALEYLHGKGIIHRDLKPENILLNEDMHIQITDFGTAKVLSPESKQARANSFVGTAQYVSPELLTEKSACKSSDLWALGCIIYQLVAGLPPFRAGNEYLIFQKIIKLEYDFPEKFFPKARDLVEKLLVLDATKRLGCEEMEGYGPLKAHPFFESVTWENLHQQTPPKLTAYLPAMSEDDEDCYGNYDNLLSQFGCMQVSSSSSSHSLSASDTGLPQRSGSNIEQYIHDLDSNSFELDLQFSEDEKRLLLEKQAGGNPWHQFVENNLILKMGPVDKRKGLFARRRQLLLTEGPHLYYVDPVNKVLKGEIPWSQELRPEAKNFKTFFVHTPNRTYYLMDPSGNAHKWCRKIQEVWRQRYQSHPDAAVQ
# T1 sequence (P12931 2-536 limits assumed): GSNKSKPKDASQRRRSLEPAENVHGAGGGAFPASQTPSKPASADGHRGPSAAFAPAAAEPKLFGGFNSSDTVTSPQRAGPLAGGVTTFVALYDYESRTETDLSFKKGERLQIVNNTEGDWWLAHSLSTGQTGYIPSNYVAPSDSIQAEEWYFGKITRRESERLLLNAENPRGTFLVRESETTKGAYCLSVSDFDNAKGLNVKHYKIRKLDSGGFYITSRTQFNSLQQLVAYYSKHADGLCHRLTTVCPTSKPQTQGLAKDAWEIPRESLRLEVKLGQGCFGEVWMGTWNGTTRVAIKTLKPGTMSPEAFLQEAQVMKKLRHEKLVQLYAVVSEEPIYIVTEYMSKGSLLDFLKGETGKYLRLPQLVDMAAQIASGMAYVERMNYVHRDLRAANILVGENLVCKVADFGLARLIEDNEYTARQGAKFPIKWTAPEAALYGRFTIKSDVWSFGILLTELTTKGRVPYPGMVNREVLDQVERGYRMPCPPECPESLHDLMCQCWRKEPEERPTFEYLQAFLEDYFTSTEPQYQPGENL
# Inhibitor of NF-kappa-B kinase (IKK), sequence (O14920 whole entry): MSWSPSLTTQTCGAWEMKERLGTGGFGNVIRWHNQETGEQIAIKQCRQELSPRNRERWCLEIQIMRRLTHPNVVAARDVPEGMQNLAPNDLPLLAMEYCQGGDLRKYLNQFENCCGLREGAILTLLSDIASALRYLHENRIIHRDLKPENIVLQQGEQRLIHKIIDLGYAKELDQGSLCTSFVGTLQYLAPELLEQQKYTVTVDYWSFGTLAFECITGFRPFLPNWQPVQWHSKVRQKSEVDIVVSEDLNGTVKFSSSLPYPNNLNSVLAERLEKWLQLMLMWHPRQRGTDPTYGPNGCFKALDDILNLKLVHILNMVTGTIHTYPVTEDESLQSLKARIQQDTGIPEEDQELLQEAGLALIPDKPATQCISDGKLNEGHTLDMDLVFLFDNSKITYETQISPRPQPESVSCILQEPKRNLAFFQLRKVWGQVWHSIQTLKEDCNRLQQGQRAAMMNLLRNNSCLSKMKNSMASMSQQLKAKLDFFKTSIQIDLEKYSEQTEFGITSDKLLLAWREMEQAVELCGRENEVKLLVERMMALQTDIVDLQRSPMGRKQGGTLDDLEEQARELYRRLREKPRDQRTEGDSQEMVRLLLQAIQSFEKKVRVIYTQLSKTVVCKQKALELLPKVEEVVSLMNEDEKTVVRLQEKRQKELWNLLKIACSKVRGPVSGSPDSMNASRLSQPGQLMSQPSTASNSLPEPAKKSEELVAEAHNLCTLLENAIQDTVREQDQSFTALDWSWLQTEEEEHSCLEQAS
# Inhibitor of NF-kappa-B kinase (IKK), sequence (O15111 whole entry): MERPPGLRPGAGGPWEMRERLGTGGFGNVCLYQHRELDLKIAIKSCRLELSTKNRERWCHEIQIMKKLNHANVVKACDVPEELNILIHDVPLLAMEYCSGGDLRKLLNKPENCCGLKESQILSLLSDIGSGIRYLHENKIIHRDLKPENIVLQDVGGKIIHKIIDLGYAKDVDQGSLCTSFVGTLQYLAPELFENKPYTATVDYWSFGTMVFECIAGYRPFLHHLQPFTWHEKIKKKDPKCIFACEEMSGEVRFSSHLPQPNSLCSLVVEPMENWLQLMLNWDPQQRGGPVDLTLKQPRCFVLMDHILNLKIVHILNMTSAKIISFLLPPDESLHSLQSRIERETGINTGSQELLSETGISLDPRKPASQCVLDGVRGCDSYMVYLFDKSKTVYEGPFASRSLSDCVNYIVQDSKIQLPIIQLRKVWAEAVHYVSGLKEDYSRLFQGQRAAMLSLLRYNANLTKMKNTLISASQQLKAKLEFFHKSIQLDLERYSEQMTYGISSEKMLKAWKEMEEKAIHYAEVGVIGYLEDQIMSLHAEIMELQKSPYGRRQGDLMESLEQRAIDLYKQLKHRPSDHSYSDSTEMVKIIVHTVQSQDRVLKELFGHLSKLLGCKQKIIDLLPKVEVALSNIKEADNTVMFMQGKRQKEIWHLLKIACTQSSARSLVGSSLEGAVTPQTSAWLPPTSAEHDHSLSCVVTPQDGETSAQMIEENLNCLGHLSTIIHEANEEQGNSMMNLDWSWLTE
# Inhibitor of NF-kappa-B kinase (IKK), sequence (Q9Y6K9 whole entry): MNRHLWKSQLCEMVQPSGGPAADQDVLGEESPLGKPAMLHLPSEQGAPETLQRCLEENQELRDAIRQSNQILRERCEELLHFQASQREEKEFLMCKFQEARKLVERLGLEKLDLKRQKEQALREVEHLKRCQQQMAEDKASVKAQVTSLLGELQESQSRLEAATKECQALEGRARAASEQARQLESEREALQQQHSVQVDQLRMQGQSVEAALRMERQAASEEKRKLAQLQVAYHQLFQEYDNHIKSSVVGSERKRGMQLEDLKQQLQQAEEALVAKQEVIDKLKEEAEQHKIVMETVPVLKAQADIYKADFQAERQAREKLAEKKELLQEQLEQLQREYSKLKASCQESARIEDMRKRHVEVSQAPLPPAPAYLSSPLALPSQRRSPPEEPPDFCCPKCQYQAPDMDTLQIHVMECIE
# Cyclin-dependent kinase 4, sequence (P11802 whole entry): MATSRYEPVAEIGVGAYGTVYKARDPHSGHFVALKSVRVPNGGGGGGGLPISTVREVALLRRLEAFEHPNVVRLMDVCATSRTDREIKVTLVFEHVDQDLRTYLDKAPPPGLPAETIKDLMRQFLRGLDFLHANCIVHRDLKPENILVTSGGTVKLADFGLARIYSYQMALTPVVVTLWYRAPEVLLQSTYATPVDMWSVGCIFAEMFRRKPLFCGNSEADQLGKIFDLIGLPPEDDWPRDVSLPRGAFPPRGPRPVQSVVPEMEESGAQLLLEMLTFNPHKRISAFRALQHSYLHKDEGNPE
smiles,measurement,setting,value
COc1cc(Nc2c(C#N)cnc3cc(-c4ccc(CN5CCN(C)CC5)cn4)sc23)c(Cl)cc1Cl,IC50,[1],> 10000 nM
same,IC50,[2],420 nM
same,IC50,[3],1600 nM
same,IC50,[4],13 nM
same,IC50,[5],> 10000 nM
same,IC50,[6],> 10000 nM
same,IC50,[7],> 10000 nM
